{
  "source": "paper PMC12363342",
  "about": "“Investigating the N-terminal linker histone H1 subtypes as substrates for JmjC lysine demethylases” (RSC Chemical Biology, 2025)",
  "note": "Square brackets hold non-standard residues; d marks the D form. Ends that are not written are not given here. Lys(Me3) = C[N+](C)(C)CCCC[C@H](N)C(=O)O",
  "data": [
    {"target": "T1, KDM4D (Homo sapiens, UniProt Q6B0I6)", "T1 construct": "KDM4AM1-L359,[38]; KDM4DM1-L359,[39]; KDM4EM1-R336,[30]; His6 (N); made in house; host or cells: Escherichia coli", "T1 sequence (Q6B0I6 1-359)": "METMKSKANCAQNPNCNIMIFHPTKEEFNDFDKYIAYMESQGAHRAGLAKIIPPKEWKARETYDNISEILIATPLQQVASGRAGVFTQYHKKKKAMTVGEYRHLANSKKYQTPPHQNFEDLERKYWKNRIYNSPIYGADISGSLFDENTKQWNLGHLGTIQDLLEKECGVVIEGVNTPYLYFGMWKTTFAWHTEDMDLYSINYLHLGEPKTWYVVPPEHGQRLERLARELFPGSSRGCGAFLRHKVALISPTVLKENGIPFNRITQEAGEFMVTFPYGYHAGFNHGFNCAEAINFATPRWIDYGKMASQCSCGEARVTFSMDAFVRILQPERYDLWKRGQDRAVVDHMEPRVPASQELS", "assay": "formaldehyde dehydrogenase (FDH)-coupled demethylation assay, KDM4D", "type": "biochemical", "details": "FDH-coupled fluorescence assay; KDM4D (400 nM), H1 peptide 1–50 μM, FAS 20 μM, LAA 200 μM, 2OG 200 μM, NAD+ 500 μM, FDH 2.0 μM, HEPES pH 7.5; mean ± SEM (n = 3)", "procedure": "(§1) Kinetic parameters were determined by recording the initial reaction rates of NADH production at varying histone peptide concentrations (Fig. S24 and S25). The overall catalytic efficiencies (as measured by kcat/KM) gave the following rank orders for KDM4D: H1.5K26me3 (0.192 μM^−1 min^−1) > H1.3K24me3 (0.066 μM^−1 min^−1) ≈ H1.2K26me3 (0.063 μM^−1 min^−1) > H1.4K25me3 (0.044 μM^−1 min^−1). […] These rank orders differ somewhat from the initial screening results. However, given the complexities of 2OG oxygenase catalysis and the relatively low catalytic efficiencies observed, such apparent discrepancies are not unexpected.[28] It is also noteworthy that, in some instances, increased KM values correlate with elevated kcat values, resulting in similar kcat/KM ratios, particularly for H1.4K25me3 with KDM4D and H1.2K25me3 with KDM4E.\n(§2) Kinetic parameters for demethylation of N^ε-trimethylated H1 peptides by KDM4D and KDM4E (400 nM) measured using a formaldehyde dehydrogenase-coupled demethylation assay. H1 peptide (1–50 μM), FAS (20 μM), LAA (200 μM), 2OG (200 μM), NAD^+ (500 μM), KDM4 enzyme (0.8 μM) and FDH (2.0 μM) in HEPES buffer at pH 7.5. Each value is shown as mean ± SEM (n = 3)\n(§3) Substrate Km values for KDM4 enzymes were determined using a reported formaldehyde dehydrogenase/NAD coupled enzyme assay that quantifies formaldehyde production.[30] In brief, DNA encoding for wild-type full-length formaldehyde dehydrogenase was synthesised (by GenScript) and cloned into the pET-28B vector. The resultant plasmid was then transformed into the Rosetta strain of Escherichia coli. Coupled enzyme-assays were carried out in black polystyrene 384-well non-binding surface microplates (Corning) and kinetic measurements were obtained using a PHERAstar FS plate reader (BMG Labtech) equipped with a 350 nm excitation and 460 nm emission optic module.[30] All steps were performed in the assay buffer (50 mM HEPES pH 7.5, 0.01% (v/v) Tween-20). Substrate mixtures were prepared freshly and contained FAS (20 μM), LAA (200 μM), 2OG (200 μM), NAD^+ (500 μM), and H1 peptide (1–50 μM); they were dispensed (25 μL final volume) in triplicate. Assays were initiated by plate reader injection of 25 μL of a mixture of KDM4 (0.8 μM) and formaldehyde dehydrogenase (FDH) (2.0 μM) in assay buffer (50 mM HEPES pH 7.5, 0.01% (v/v) Tween-20). Production of NADH was measured at 60 second intervals over 25 cycles. Kinetic parameters were determined from the reaction rate during the initial linear phase of formaldehyde production, and specific activities were calculated from a formaldehyde standard curve and fitted to the Michaelis–Menten equation using GraphPad Prism Version 5.0 (GraphPad software, La Jolla, CA, USA). Each assay was carried out in triplicate with independently prepared reaction mixtures.", "units": {"Km": "µM", "kcat (KDM4D)": "s⁻¹"}, "values": [
      {"substance": "KKKAAK[Lys(Me3)]AGGTPRKA [Peptide H1.2K26me3, 15-mer linker histone H1.2 residues 20-34 peptide, tri-methylated K26]", "Km": "4.6 ± 0.41", "kcat (KDM4D)": "0.00483 ± 0.00017"},
      {"substance": "KKKAR[Lys(Me3)]SAGAAKRKA [Peptide H1.4K25me3, 15-mer linker histone H1.4 residues 20-34 peptide, tri-methylated K25]", "Km": "60 ± 24.3", "kcat (KDM4D)": "0.0443 ± 0.0152"},
      {"substance": "KKKA[Lys(Me3)]KAGATAGKRK [Peptide H1.3K24me3, 15-mer linker histone H1.3 residues 20-34 peptide, tri-methylated K24]", "Km": "5.93 ± 0.69", "kcat (KDM4D)": "0.0065 ± 0.00033"},
      {"substance": "KKKATK[Lys(Me3)]AAGAGAAK [Peptide H1.5K26me3, 15-mer linker histone H1.5 residues 20-34 peptide, tri-methylated K26]", "Km": "7.51 ± 0.77", "kcat (KDM4D)": "0.024 ± 0.0013"}
    ]},
    {"target": "T1, KDM4D", "assay": "formaldehyde dehydrogenase (FDH)-coupled demethylation assay, KDM4D", "type": "biochemical", "details": "FDH-coupled fluorescence assay; KDM4D (400 nM), H1 peptide 1–50 μM, HEPES pH 7.5; catalytic efficiency", "procedure": "as §1, §2, §3", "units": {"kcat/KM (KDM4D)": "M⁻¹ s⁻¹"}, "values": [
      {"substance": "KKKAAK[Lys(Me3)]AGGTPRKA [Peptide H1.2K26me3, 15-mer linker histone H1.2 residues 20-34 peptide, tri-methylated K26]", "kcat/KM (KDM4D)": 1050},
      {"substance": "KKKAR[Lys(Me3)]SAGAAKRKA [Peptide H1.4K25me3, 15-mer linker histone H1.4 residues 20-34 peptide, tri-methylated K25]", "kcat/KM (KDM4D)": 733},
      {"substance": "KKKA[Lys(Me3)]KAGATAGKRK [Peptide H1.3K24me3, 15-mer linker histone H1.3 residues 20-34 peptide, tri-methylated K24]", "kcat/KM (KDM4D)": 1100},
      {"substance": "KKKATK[Lys(Me3)]AAGAGAAK [Peptide H1.5K26me3, 15-mer linker histone H1.5 residues 20-34 peptide, tri-methylated K26]", "kcat/KM (KDM4D)": 3200}
    ]}
  ]
}
